Results: patent publication US8404866B2, “Substituted heterocyclic mercaptosulfonamide metalloprotease inhibitors” (Florida State University Research Foundation, priority 2008, dated 2013)
Where a name gives a salt, the structure may show the parent alone.

Legend:
[1] = system: human brain microvascular endothelial cells (hBMECs); assay: Endothelial cell migration and wound-healing assay; format: cell-based; settings: at 3 μM and above, 24 hours
Protocol: Culture of human brain microvascular endothelial cells: Human brain microvascular endothelial cells (hBMECs) were cultured with EGM-2MV Microvascular Endothelial Cell Medium-2 1 kit Bullet Kit, 5% fetal bovine serum, with or without treatments with synthetic matrix metalloproteinase inhibitors (MMPIs), at 37° C. and 5% CO2.
Endothelial cell migration and wound-healing assays: All experiments for this phase were performed in triplicate, and each consisted of […] wounded cultures utilizing serial concentrations of MMPIs: (1) an untreated control; (2) 100 μM MMPI; (3) 30 μM MMPI; (4) 10 μM MMPI; (5) 3 μM MMPI; (6) 1 μM MMPI; (7) 100 nM MMPI; (8) 10 nM MMPI; and (9) 1 nM MMPI. A 1 mL pipette tip was utilized to create a linear wound in a confluent monolayer of hBMECs. A fine, sterile needle was used to demarcate a cell-free “wounded field”. All cultures were photographed at that time. After 24 hours, the wounded cell culture was washed three times with phosphate buffered saline, fixed with 4% paraformaldehyde for 10-20 min, and stained with 0.1% crystal violet for 10-20 min. The stained culture was washed with ddH2O three times and left overnight to air dry. […] The density of the cell coverage in the wounded field was quantified utilizing the integrated morphometry analysis (IMA) (Metamorph System v.4.6r8, University Imaging Corp.). […]

[2] = system: human mesenchymal stem cells (hMSC); assay: MMPI cytotoxicity / growth of hMSC (trypan blue count); format: cell-based; settings: 1 nM to 100 μM, 24 hours
Protocol: Passage 3 human adult bone marrow-derived mesenchymal stem cells (hMSCs, Tulane Center for Gene Therapy) were plated for a recovery phase of 24 hours at 37° C. and 5% CO2 in Alpha Minimum Essential Medium (αMEM, Sigma Aldrich) containing L-glutamine but without ribonucleosides or deoxyribonucleosides, 16.5% FBS, ˜2-4 mM L-glutamine, and penicillin and streptomycin as antibiotics. After the recovery phase, hMSCs were seeded into 6-well plates at a density of ˜60 cells/cm^2 within each well containing 2 mL of cell culture medium. Fresh cell culture medium was added every 3 days until the cells reached a confluency of approximately ˜70% at which media was changed to the conditioned forms necessary for observing MMPI cytotoxicity.
(§1) Upon reaching the desired confluency, each cell type was treated with the respective fresh media that was conditioned with a logarithmic panel of MMPI concentrations ranging from 1 nM to 100 μM. Specifically, each of the inhibitors were dissolved in an appropriate amount of 100% EtOH to generate 8 mM stock solutions from which an aliquot was used to produce serial dilutions with either SmBm or αMEM. The conditioned media was added to either hCASMCs or hMSCs and incubated for 24 hours. […] In order to quantify the levels of toxicity these inhibitors had on hCASMC and hMSC growth and viability, the cells were treated with trypan blue and counted via a hemocytometer. […]

[3] = system: human coronary artery smooth muscle cells (hCASMC); assay: MMPI cytotoxicity / growth of hCASMC (trypan blue count); format: cell-based; settings: 24 hours
Protocol: Passage 7 human coronary artery smooth muscle cells (hCASMCs) were plated in a 10 cm dish containing 20 mL of smooth muscle basal medium (SmBm, Lonza, Cat. No. CC-3182) supplemented with 0.1% insulin, 0.1% epidermal growth factor (rhEGF), 0.2% fibroblast growth factor-B (rhFGF-B), 0.1% gentamicin/amphotericin (antibiotics), and 5% FBS. The cells were incubated for 24 hours at 37° C. and 5% CO2, with 20 mL of fresh SmBm added the following day. Fresh SmBm was added every 2 days until the culture was ˜70-80% confluent and contained a minimum of 5 mitotic figures when viewed at 100× magnification. At this time, cells were then trypsinized and seeded into 24-well plates at an initial density of 3,500 cells/cm^2 and grown to ˜60% confluence prior to MMPI treatment.
as §1, with “αMEM.” for “αMEM. The conditioned media was added to either hCASMCs or hMSCs and incubated for 24 hours.”

melting point [°C]	SMILES	inhibition on hBMEC wound healing [1]	hMSC growth curve [2]	hCASMC growth ([3]; lower concentrations, compared to identical concentrations of YHJ-6-286 and YHJ-7-23)	hCASMC growth curve ([3]; 1 nM to 100 μM)
170 to 171	NC(=O)N1C[C@H](NS(=O)(=O)c2ccc(Oc3ccccc3)cc2)[C@@H](S)C1 (racemic) [Example 1, (±)-N-Carbamoyl-trans-3-(4-phenoxybenzenesulfonamido)-4-mercaptopyrrolidine]	pretty good inhibition	erratic results		
	O=S(=O)(N[C@H]1CNC[C@@H]1S)c1ccc(Oc2ccccc2)cc1 (racemic) [Example 3, (±)-trans-3-(4-Phenoxybenzenesulfonamido)-4-mercaptopyrrolidine Hydrochloride]			increased hCASMC growth nearly two-fold	
	CN([C@H]1CN(C(N)=O)C[C@@H]1S)S(=O)(=O)c1ccc(Oc2ccccc2)cc1 (racemic) [Example 4, (±)-N-Carbamoyl-trans-3-(N-methyl-4-phenoxybenzenesulfonamido)-4-mercaptopyrrolidine]		steadily increased as the concentration of YHJ-7-23 was decreased		local minimum originating at 300 nM and minimizing at ˜30 nM
142 to 143	O=C(OCc1ccccc1)N1C[C@H](NS(=O)(=O)c2ccc(Oc3ccccc3)cc2)[C@@H](S)C1 (racemic) [Example 5, (±)-N-(Benzyloxycarbonyl)-trans-3-(4-phenoxybenzenesulfonamido)-4-mercaptopyrrolidine]				
